# Source: patent US20170298380A1, “IMIDAZOLINONE HERBICIDE RESISTANT BORAGE” (Bioriginal Food & Science Corp., priority 2016, published 2017)
# “Also recorded” adds a separate entry of the source. Read-outs that look alike come from different tables or passages of the source.
# Columns and labels:
# [1] = test system: M4 homozygous imidazolinone-resistant borage (AHAS1 mutant); format: in vivo, Borago officinalis; conditions: AHAS1 mutant line, 2X of the recommended rate, 21 days after spraying
# Procedure: Adjuvant reagent for each herbicide was added into spray solution accordingly. Sprayed M4 borage plants were visually evaluated at 21 days after spraying by comparing with wild-type controls.
# borage seeds (M1) = format: in vivo, Borago officinalis
# Procedure: Approximately 164000 borage seeds were divided into 6 groups for mutagenesis. The seeds (M1) were soaked in 0.5%, 1.0% and 1.5% (v/v) of EMS solutions for 8 hours and 16 hours respectively, and then rinsed with tap water for 4 hours. After washing, the seeds are dried with paper towel. The mutagenized seeds were sowed in 48 plots in a research farm in Saskatoon, SK, in June, 2012. Each plot was 7.5×1.5 m in size and sowed 86 g of mutagenized seeds. M1 borage plants were grown to maturity and M2 seeds were harvested by groups according to the EMS treatments.
# [2] = test system: AHAS enzyme of susceptible borage (wild-type); assay: In vitro AHAS activity assay, susceptible (wild-type) borage leaf protein extract; format: biochemical, Borago officinalis; conditions: 625 μM imazamox
# Text: (§1) The herbicide imazamox is an inhibitor of the AHAS enzyme. […] It has been shown from the above Examples that the AHAS1 mutant borage line can tolerate two times the recommended dosage of “Solo” herbicide and the tolerance is caused by the single nucleotide mutation of the AHAS1 gene. As such, the AHAS activity level of the mutant plants would provide further evidence to support the conclusion. AHAS enzyme activity is generally measured using a discontinuous colorimetric assay based on the method developed by Singh et al. (Singh B K, et al. Assay of acetohydroxyacid synthase. Analytical Biochemistry 171 (1988) 173-179). In this method, the crude protein is incubated with the substrate for a fixed time to generate intermediate acetolactate that is then converted to acetoin under decarboxylation. Finally, the reaction of acetoin with creatine and α-naphthol forms a pink-colored product which can be measured at 520 nm wavelength in a spectrometer. As a result, the AHAS activity level can be estimated based on the color density. See Duggleby R G and Pang S S. (2000) supra. […]
# (§2) The gummy protein layer was re-dissolved in 1.4 mL incubation buffer containing 50 mM K2HPO4 buffer (pH 7.0), 100 mM sodium pyruvate, 10 mM MgCl2, 1 mM TPP and 1 μM FAD. The amount of protein in each sample was determined immediately by the Bio-Rad protein assay using a dye reagent (#500-0006). […]
# [3] = test system: AHAS enzyme of homozygous resistant borage (AHAS1 mutant); assay: In vitro AHAS activity assay, resistant (AHAS1 mutant) borage leaf protein extract; format: biochemical, Borago officinalis; conditions: across all imazamox concentrations (0-625 μM)
# Text: as §1, §2
smiles,measurement,setting,value
"CCc1cnc(C2=NC(C)(C(C)C)C(=O)N2)c(C(=O)O)c1 (stereo not shown) [imazethapyr, 2-[4.5-dihydro-4-methyl-4-(1-methylethyl)-5-oxo-1H-imidazol-2-yl]-5-ethyl-3-pyridinecarboxylic acid]",level of resistance / tolerance (in words),[1],strong resistance; also recorded: equally strong resistant level
"CCOS(C)(=O)=O [EMS, ethyl methanesulfonate]",Germination Rate (%),borage seeds (M1); 0.5% EMS 8 hrs,19%
same,Germination Rate (%),borage seeds (M1); 0.5% EMS 16 hrs,8%
same,Germination Rate (%),borage seeds (M1); 1.0% EMS 8 hrs,15%
same,Germination Rate (%),borage seeds (M1); 1.0% EMS 16 hrs,9%
same,Germination Rate (%),borage seeds (M1); 1.5% EMS 8 hrs,11%
same,Germination Rate (%),borage seeds (M1); 1.5% EMS 16 hrs,8%
same,germination rate,borage seeds (M1); all EMS-treated M1 seeds sown in the field,about 12%
same,sterility of M1,borage seeds (M1); in vivo,pronounced sterility
COc1nn(C(=O)[N-]S(=O)(=O)c2ccccc2OC(F)(F)F)c(=O)n1C.[Na+] [flucarbazone sodium],level of resistance / tolerance (in words),[1],some tolerance
"COCc1cnc(C2=NC(C)(C(C)C)C(=O)N2)c(C(=O)O)c1 (stereo not shown) [imazamox, 2-[4,5-dihydro-4-methyl-4-(1-methylethyl)-5-oxo-1H-imidazol-2-yl]-5-(methoxymethl)-3-pyridinecarboxylic acid.]",AHAS activity retained,[2],zero and completely inhibited
same,AHAS activity of mutant compared with wild type,[3],significantly higher AHAS activity than the wild type borage
same,level of resistance / tolerance (in words),[1],strong resistance; also recorded: equally strong resistant level
